Test results from publication PMC3138190 (Bioorganic & medicinal chemistry, 2011).

Columns and labels:
[1] = target: T1, human DHFR (Homo sapiens, UniProt P00374); assay: Dihydrofolate reductase; type: biochemical; details: for activity against DHFR in words: DHFR from different sources
T1 sequence (P00374 1-187): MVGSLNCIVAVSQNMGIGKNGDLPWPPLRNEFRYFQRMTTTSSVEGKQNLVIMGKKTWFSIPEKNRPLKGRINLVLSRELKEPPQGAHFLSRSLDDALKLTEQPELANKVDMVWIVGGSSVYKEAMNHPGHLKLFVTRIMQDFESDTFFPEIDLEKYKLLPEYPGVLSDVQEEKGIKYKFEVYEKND

[2] = target: human TS (Homo sapiens, UniProt P04818); assay: Thymidylate synthase; type: biochemical
[3] = system: FPGS; details: addition of only one additional glutamic acid; cited from earlier work
[4] = system: hFPGS, from CCRF-CEM cells; details: at concentrations up to 1045 μM; cited from earlier work

human TS, sequence (P04818 whole entry): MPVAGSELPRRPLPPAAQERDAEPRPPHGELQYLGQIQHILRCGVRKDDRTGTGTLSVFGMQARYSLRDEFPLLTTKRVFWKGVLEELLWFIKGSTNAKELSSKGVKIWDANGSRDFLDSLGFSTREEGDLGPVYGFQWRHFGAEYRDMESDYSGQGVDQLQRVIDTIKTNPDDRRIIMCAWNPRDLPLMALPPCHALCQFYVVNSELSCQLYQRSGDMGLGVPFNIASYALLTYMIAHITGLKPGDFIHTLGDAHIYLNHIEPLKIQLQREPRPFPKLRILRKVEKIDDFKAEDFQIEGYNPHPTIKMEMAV

Cc1nc2sc3cccc(CNc4ccc(C(=O)N[C@@H](CCC(=O)O)C(=O)O)cc4)c3c2c(=O)[nH]1 [Compound 4, N-(4-{[(2-methyl-4-oxo-3,4-dihydro[1]benzothieno[2,3-d]pyrimidin-5-yl)methyl]amino}benzoyl)-L-glutamic acid]
activity against DHFR in words [1]: inactive

Cc1nc2sc3cccc(CNc4ccc5c(c4)CN([C@@H](CCC(=O)O)C(=O)O)C5=O)c3c2c(=O)[nH]1 [Compound 5, (2S)-2-(5-{[(2-methyl-4-oxo-3,4-dihydro[1]benzothieno[2,3-d]pyrimidin-5-yl)methyl]amino}-1-oxo-1,3-dihydro-2H-isoindol-2-yl)pentanedioic acid]
potency against hTS relative to 4 (less potent) ([2]; hTS, rigid versus flexible side chain, 2-methyl): 3 fold | activity against DHFR in words [1]: inactive

Cc1nc2ccc3ccc(CNc4ccc5c(c4)CN([C@@H](CCC(=O)O)C(=O)O)C5=O)cc3c2c(=O)[nH]1 [Compound 2]
substrate activity for FPGS [3]: excellent substrate

Nc1nc2sc3cccc(CNc4ccc(C(=O)N[C@@H](CCC(=O)O)C(=O)O)cc4)c3c2c(=O)[nH]1 [Compound 6, N-(4-{[(2-amino-4-oxo-3,4-dihydro[1]benzothieno[2,3-d]pyrimidin-5-yl)methyl]amino}benzoyl)-L-glutamic acid]
potency against hDHFR relative to MTX (less potent) [1]: about 5 times

Nc1nc2sc3cccc(CNc4ccc5c(c4)CN([C@@H](CCC(=O)O)C(=O)O)C5=O)c3c2c(=O)[nH]1 [Compound 7, (2S)-2-(5-{[(2-Amino-4-oxo-3,4-dihydro[1]benzothieno[2,3-d]pyrimidin-5-yl)methyl]amino}-1-oxo-1,3-dihydro-2H-isoindol-2-yl)pentanedioic acid]
potency against hTS relative to compound 1 (more potent) ([2]; hTS): 2 fold | potency relative to 6 ([2]; rigid versus flexible side chain, 2-amino): twice as potent | potency against hDHFR relative to MTX (less potent) [1]: about 5 times

Cc1[nH]c2nc(N)[nH]c(=O)c2c1Sc1ccc(C(=O)N[C@@H](CCC(=O)O)C(=O)O)cc1 [Compound 3, N-{4-[(2-amino-6-methyl-4-oxo-4,7-dihydro-3H-pyrrolo[2,3-d]pyrimidin-5-yl)thio]benzoyl}-L-glutamic acid]
substrate activity for hFPGS [4]: not a substrate
